{
  "source": "paper PMC10287695",
  "about": "“Non-covalent inhibitors of thioredoxin glutathione reductase with schistosomicidal activity in vivo” (Nature Communications, 2023)",
  "key": {"S. mansoni TGR": {"target": "T1, S. mansoni TGR (Schistosoma mansoni, UniProt Q962Y6)", "T1 construct": "made in house", "T1 sequence (Q962Y6 1-598)": "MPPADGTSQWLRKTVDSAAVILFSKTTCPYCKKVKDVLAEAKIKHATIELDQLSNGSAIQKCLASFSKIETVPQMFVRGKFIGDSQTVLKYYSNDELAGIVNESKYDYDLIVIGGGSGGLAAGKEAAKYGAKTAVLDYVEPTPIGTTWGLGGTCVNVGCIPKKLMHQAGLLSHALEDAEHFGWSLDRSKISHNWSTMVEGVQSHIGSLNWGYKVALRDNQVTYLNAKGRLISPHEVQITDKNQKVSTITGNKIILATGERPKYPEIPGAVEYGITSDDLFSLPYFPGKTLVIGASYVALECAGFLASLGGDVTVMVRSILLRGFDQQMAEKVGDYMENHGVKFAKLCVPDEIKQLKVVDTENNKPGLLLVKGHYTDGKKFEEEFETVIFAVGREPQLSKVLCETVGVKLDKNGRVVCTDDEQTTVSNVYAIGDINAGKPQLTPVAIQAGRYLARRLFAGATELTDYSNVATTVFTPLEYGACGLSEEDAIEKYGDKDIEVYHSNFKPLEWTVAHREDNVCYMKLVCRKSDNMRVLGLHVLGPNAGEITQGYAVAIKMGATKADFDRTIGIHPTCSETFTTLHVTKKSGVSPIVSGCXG", "test": "S. mansoni TGR enzyme inhibition (DTNB reduction)", "assay_type": "biochemical", "method": "Recombinant TGR, human TrxR1, B. malayi (Bm)TrxR and human GR proteins were expressed and purified as described[20],[69],[79]. The codon optimized sequence for P. falciparum (PfTrxR, https://www.ncbi.nlm.nih.gov/protein/CAA60574.1/) with an N-terminal 6-His tag was synthesized and inserted into pET15b (GenScript) and expressed in BL21 (DE3) cells and purified as described for human GR[20]. TGR and TrxR enzyme inhibition assays were performed in triplicate at 25 °C as described[20] in 0.1 M potassium phosphate (pH 7.4), 10 mM EDTA, 100 µM NADPH and 0.01% Tween-20. […] The reaction was started with addition of an equal volume of DTNB (6 mM) and NADPH (100 µM) and the increase in A412 during the first 3 min was recorded. […] The reaction was preincubated for 15 min. Activity was initiated with the addition of 1 mM GSSG and 100 μM NADPH and initial rates of NADPH oxidation were monitored at 340 nm. The reactions were done in triplicate. The IC50 was calculated in GraphPad Prism."}, "recombinant TGR": {"target": "T2, recombinant TGR (Schistosoma mansoni, UniProt Q962Y6)", "T2 construct": "made in house", "test": "Photolabeling of TGR with PRP", "assay_type": "binding, S. mansoni", "settings": "for 800 nm Normalized Signal: TGR 1 µM", "method": "[…] The photocrosslinking and CuAAC click biotinylation were performed as previously described by our group. After resolving samples on SDS-PAGE and nitrocellulose membrane transfer, western blot normalization was performed with the Licor Revert™ 700 Total Protein Stain Kit as described in their protocol. Protein was finally imaged with the Licor IRDye® 800CW streptavidin on the Odyssey Sa imager."}, "[1]": {"target": "S. mansoni histone deacetylase 8 (Schistosoma mansoni, UniProt A5H660)", "sequence (A5H660 entry or part of it)": "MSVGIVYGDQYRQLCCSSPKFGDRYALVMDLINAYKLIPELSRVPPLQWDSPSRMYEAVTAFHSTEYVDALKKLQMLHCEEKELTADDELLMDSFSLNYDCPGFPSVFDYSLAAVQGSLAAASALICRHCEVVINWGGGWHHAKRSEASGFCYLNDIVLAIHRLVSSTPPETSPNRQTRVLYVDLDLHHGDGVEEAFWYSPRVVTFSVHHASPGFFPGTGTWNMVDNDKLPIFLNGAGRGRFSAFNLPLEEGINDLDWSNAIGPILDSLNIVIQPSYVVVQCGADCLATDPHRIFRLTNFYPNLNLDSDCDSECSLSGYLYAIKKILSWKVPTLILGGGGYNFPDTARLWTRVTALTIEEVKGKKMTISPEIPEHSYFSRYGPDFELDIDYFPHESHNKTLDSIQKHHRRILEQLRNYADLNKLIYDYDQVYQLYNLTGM", "test": "Photolabeling of control protein SmHDAC8 with PRP", "assay_type": "binding", "settings": "for 800 nm Normalized Signal: SmHDAC8 1 µM", "method": "TGR (1 µM) or SmHDAC8 (1 µM) was incubated at concentrations of either 5 or 50 µM PRP with or without 100 µM NADPH totaling eight samples. The photocrosslinking and CuAAC click biotinylation were performed as previously described by our group. After resolving samples on SDS-PAGE and nitrocellulose membrane transfer, western blot normalization was performed with the Licor Revert™ 700 Total Protein Stain Kit as described in their protocol. Protein was finally imaged with the Licor IRDye® 800CW streptavidin on the Odyssey Sa imager."}, "TGR [2]": {"target": "T3, TGR (Schistosoma mansoni, UniProt Q962Y6)", "T3 construct": "made in house", "T3 sequence (Q962Y6 1-598)": "T1 sequence (Q962Y6 1-598)", "test": "Reversibility by jump dilution", "assay_type": "biochemical", "method": "A reaction of 370 nM TGR, 100 µM NADPH, and 250 µM inhibitor was incubated for 15 min at room temperature. A 100x dilution of the reaction was made and the activity was determined immediately and after 60 min."}, "TGR [3]": {"target": "T4, TGR (Schistosoma mansoni, UniProt Q962Y6, X597U)", "T4 construct": "made in house", "test": "NADPH consumption (oxidase activity)", "assay_type": "biochemical, S. mansoni", "method": "TRi-1, Stattic (both at 50 µM) and AF (20 µM) were incubated with 1 ml of 500 nM TGR and 100 µM NADPH in TGR reaction buffer for 30 min. The samples were desalted using a Zeba spin desalting column (Thermo Fisher Scientific) and 100 µl of the desalted sample was combined with 100 µl of 100 µM NADPH. NADPH consumption was monitored at 340 nm in triplicate. Compounds 1, 4, 6, and 7 (50 µM) were tested in the same fashion without the desalting step and with a first incubation step of 30 min for 6 and 7 and 2 h for 1 and 4."}, "TGR [4]": {"target": "T4, TGR", "test": "Superoxide production (pyrogallol red)", "assay_type": "biochemical, S. mansoni", "settings": "replicates", "method": "The production of superoxide by TGR was determined by monitoring reaction of superoxide with pyrogallol red[80]. Briefly, a 1 ml reaction mix (500 nM TGR, 100 µM NADPH, and 20–50 µM inhibitor) was incubated at room temperature for 30 min for fast inhibitors, or 2 h for slow inhibitors. For irreversible inhibitor controls TRi-1 (synthesized in house as reported[45]), Stattic (Cayman Chemical), and AF (Cayman Chemical), the samples were desalted using a Zeba spin desalting column. 100 µL of sample was combined with pyrogallol buffer with and without superoxide dismutase (SOD) (50 µM pyrogallol red, 300 µM NADPH; ± 10 units SOD). The reaction was measured at A340 and A540 simultaneously for 2 h."}, "[5]": {"test": "Reactivity with GSH or N-Boc protected methyl ester of selenocysteine (LCMS)", "assay_type": "physicochemical", "settings": "up to 120 h", "method": "Dimethyl bis(N-tert-butoxycarbonyl)-L-selenocystine was synthesized as reported previously. (N-tert-butoxycarbonyl)-L-selenocysteine methyl ester was prepared in situ[86] in methanol or phosphate buffer. Compound 2 was added to the solution of (N-tert-butoxycarbonyl)-L-selenocysteine methyl ester in either methanol or phosphate buffer and incubated for 40 min, 24 h, and 120 h under N2 gas balloon. Additional amounts of NaBH4 were added at 12 h and 96 h to maintain the reducing conditions. Aliquots taken from methanol solution at each of the time points were concentrated in vacuo, mixed with water, and extracted with ethyl acetate. The organic layer was separated, concentrated in vacuo, re-dissolved in methanol and analyzed by LCMS. Aliquots taken from the phosphate buffer solution were extracted with ethyl acetate. The resulting organic layer was separated and concentrated in vacuo. The residue was re-dissolved in methanol and analyzed by LCMS. […] No additional spots were detected by TLC as well.\nCovalent TGR inhibitor TRi-1 was used as a positive control for the reaction with (N-tert-butoxycarbonyl)-L-selenocysteine methyl ester. The reactivity of TRi-1 was tested similarly as described above for compound 2."}, "[6]": {"settings": "D0: diluted 1:100, activity determined immediately, list for plotting"}, "[7]": {"settings": "D60: diluted 1:100, activity determined after 60 min, list for plotting"}},
  "note": "Where “and” joins values, the source holds several entries; their conditions need not be identical. Identical values can stand only once.",
  "data": [
    {"molecule": "C#CCN(CCCNC(=O)c1c(F)c(F)c(N=[N+]=[N-])c(F)c1F)[C@@H]1C[C@@H]2C[C@H]([C@H]1C)C2(C)C", "note": "[PRP]", "values": [
      {"measurement": "IC50", "setting": "S. mansoni TGR; 15 min preincubation (enzyme + 100 µM NADPH + compound)", "result": "34.9 ± 6.11", "unit": "µM"},
      {"measurement": "inhibition at 15 µM", "setting": "S. mansoni TGR; read-out: TGR % inhibition", "result": 30.8, "unit": "%"},
      {"measurement": "inhibition at 30 µM", "setting": "S. mansoni TGR; read-out: TGR % inhibition", "result": 47.5, "unit": "%"},
      {"measurement": "inhibition at 66.7 µM", "setting": "S. mansoni TGR; read-out: TGR % inhibition", "result": 55.1, "unit": "%"},
      {"measurement": "labeling of TGR with NADPH versus without NADPH", "setting": "recombinant TGR; 5 and 50 μM PRP", "result": "more effective"},
      {"measurement": "800 nm Normalized Signal", "setting": "recombinant TGR; PRP 2 µM, NADPH 0 µM", "result": 57760},
      {"measurement": "800 nm Normalized Signal", "setting": "recombinant TGR; PRP 2 µM, NADPH 100 µM", "result": 84928},
      {"measurement": "800 nm Normalized Signal", "setting": "recombinant TGR; PRP 10 µM, NADPH 0 µM", "result": 151239},
      {"measurement": "800 nm Normalized Signal", "setting": "recombinant TGR; PRP 10 µM, NADPH 100 µM", "result": 231567},
      {"measurement": "800 nm Normalized Signal", "setting": "[1]; PRP 5 µM, NADPH 0 µM", "result": 1385},
      {"measurement": "800 nm Normalized Signal", "setting": "[1]; PRP 5 µM, NADPH 100 µM", "result": 2194},
      {"measurement": "800 nm Normalized Signal", "setting": "[1]; PRP 50 µM, NADPH 0 µM", "result": 298},
      {"measurement": "800 nm Normalized Signal", "setting": "[1]; PRP 50 µM, NADPH 100 µM", "result": 1875},
      {"measurement": "labeling of S. mansoni histone deacetylase 8", "setting": "[1]; with or without NADPH", "result": "not labeled"}
    ]},
    {"molecule": "COc1ccc([N+](=O)[O-])c(S(=O)(=O)c2ccc(Cl)cc2)n1", "note": "[TRi-1, reference compound]", "values": [
      {"measurement": "reversibility of TGR inhibition", "setting": "TGR [2]; 250 µM inhibitor, 100-fold jump dilution", "result": "irreversible"},
      {"measurement": "% Activity (ID list), D0", "setting": "TGR [2]; [6]", "result": "-1.4% and -0.0373% and 0.6%"},
      {"measurement": "% Inhibition (ID list), D0", "setting": "TGR [2]; [6]", "result": "101.4% and 100.0% and 99.4%"},
      {"measurement": "% Activity (ID list), D60", "setting": "TGR [2]; [7]", "result": "2.1% and 1.1% and 1.2%"},
      {"measurement": "% Inhibition (ID list), D60", "setting": "TGR [2]; [7]", "result": "97.9% and 98.9% and 98.8%"},
      {"measurement": "% Activity, 0 min", "setting": "TGR [2]; [0, D0]: 15 min preincubation inhibitor + TGR + NADPH, diluted 1:100, then activity determined immediately, relative to DMSO", "result": "-1.437% and -0.03726% and 0.6084%"},
      {"measurement": "Inhibitor (rate), 60 min", "setting": "TGR [2]; [60, D60]: 15 min preincubation inhibitor + TGR + NADPH, diluted 1:100, then activity determined after 60 min, raw rate", "result": "0.001123 and 0.0005896 and 0.0006645"},
      {"measurement": "% Activity, 60 min", "setting": "TGR [2]; [60, D60]: 15 min preincubation inhibitor + TGR + NADPH, diluted 1:100, then activity determined after 60 min, relative to DMSO", "result": "2.121% and 1.115% and 1.1607%"},
      {"measurement": "Inhibitor (rate), -15", "setting": "TGR [2]; [-15]: 15 min preincubation inhibitor + TGR + NADPH, then activity determined, raw rate, replicates", "result": "0.0012 and -0.0009 and -0.001"},
      {"measurement": "% Activity, -15", "setting": "TGR [2]; [-15]: 15 min preincubation inhibitor + TGR + NADPH, then activity determined, relative to DMSO, replicates", "result": "2.39% and -1.793% and -3.401%"},
      {"measurement": "% Inhibition (ID list)", "setting": "TGR [2]; before dilution (-15), list for plotting", "result": "101.0% and 101.8% and 97.0%"},
      {"measurement": "NADPH consumption by TGR after exposure", "setting": "TGR [3]", "result": "converted TGR to a pro-oxidant enzyme"},
      {"measurement": "NADPH consumption (rate/ΔOD340)", "setting": "TGR [3]; replicates", "result": "-0.001513 and -0.00148 and -0.001553"},
      {"measurement": "Superoxide production, Pyrogallol red consumption monitored ΔA540", "setting": "TGR [4]; condition not given", "result": "-0.002664 and -0.002628 and -0.002752"},
      {"measurement": "Superoxide production, Pyrogallol red consumption monitored ΔA540", "setting": "TGR [4]; second of the two columns per substance (condition not given)", "result": "-5.614e-5 and -5.998e-5"},
      {"measurement": "reaction with thiol or selenol groups in GSH or protected selenocysteine", "setting": "[5]", "result": "An adduct between TRi-1 was detected"}
    ]}
  ]
}
